Two molecules from the NIST ThermoML archive (doi:10.1021/je050048y) can be followed below.

One may read the viscosity as the resistance of a fluid to flow.

SMILES strings stand for the structures. ± gives the expanded uncertainty stated by the source.

The series can be described thus: mn = molality of the nth substance listed, in mol/kg. Conditions: 298.15 K, 101 kPa, Liquid.

Turning to `NCC(=O)O` [2-aminoacetic acid] + O, the viscosity was found to be 0.956 ± 0.036 mPa·s (m1 = 0.4991), 1.189 ± 0.043 mPa·s (m1 = 1.999) and 1.374 ± 0.049 mPa·s (m1 = 3).
For `C[C@H](N)C(=O)O` [(S)-2-aminopropanoic acid] + O, the viscosity (m1 = 0.1003) is 0.918 ± 0.034 mPa·s, the viscosity (m1 = 0.4995) was 1.017 ± 0.038 mPa·s, the viscosity (m1 = 0.7497) worked out at 1.079 ± 0.04 mPa·s and the viscosity (m1 = 1) is given as 1.152 ± 0.042 mPa·s.
